Legend:
[1] = test system: chymotrypsin like proteasome activity in M229R and 1205LuR cells; assay: Proteasome-Glo Chymotrypsin-Like Cell Based Assay; conditions: 300 nM, 48 hours
Experimental: Measurement of proteasome activity. M229R and 1205LuR cells were harvested and plated at 7,500 cells per well in a white-walled 96 well plate. […] Proteasome activity was assessed using the Proteasome-Glo Chymotrypsin-Like Cell Based Assay (Promega; Madison, Wis.) and was measured in relative luminescence units (RLU).

intratumoral HSP70 = assay: LC-MRM analysis of xenograft samples; type: in vivo, BALB SCID mice; conditions: 15-days of treatment, 100 mg/kg
Experimental: Liquid chromatography, multiple reaction monitoring mass (LC-MRM) spectrometry (LC MRM) analysis. LC-MRM was performed as described in (Remily-Wood et al., Proteomics Clin. App. 5:383-96 (2011)). Protein expression was determined using the ratio of peak area of the native peptide to corresponding internal standard; normalization of tissue results was performed using GAPDH to control for cellularity (Table 9). Data were then normalized to the pretreatment (cell lines) or vehicle controls (tissue) and plotted to show the changes in expression after drug treatment.
Xenograft experiments. BALB SCID mice (The Jackson Laboratory, Bar Harbor, Me.) were subcutaneously injected with 2.5×10^6 cells per mouse (resuspended in 111 μL L-15 media, 10 mM HEPES, 37.5 μL Matrigel). Tumors were grown to approximately 100 mm^3 prior to dosing. Mice were treated with either 100 mg XL888/kg (n=5) or an equivalent volume of vehicle (10 mM HCl), 3 times per week by oral gavage. Mouse weights and tumor volumes (L×W2/2) were measured 3 times per week. Upon completion of the experiment, vehicle and drug treated tumor biopsies were processed for LC-MRM analysis (as above).

[2] = test system: matched pairs of vemurafenib naïve and resistant melanoma cell lines and melanoma cell lines with intrinsic resistance; assay: Growth inhibition, MTT assay; type: cell-based
Experimental: Growth inhibition. Cells were plated at a density of 2.5×10^4 cells per ml and left to grow overnight before being treated with increasing concentrations of vemurafenib or XL888. After 72 hours, the levels of growth inhibition were examined using the MTT assay (Smalley et al., Br. J. Cancer 96:445-9 (2007)). […] Vemurafenib and XL888 were dissolved in 100% DMSO and stored at −20° C. as a 10 mM solution.
Statistical analysis of GI50 values. Triplicate experiments were performed for each cell line under each drug treatment. To estimate the IC50 values for each cell line for each treatment, a 4-parameter Hill equation was used to model the nonlinear sigmoid relationship between the drug concentration and % cell survival. Briefly,
where x is the drug concentration, y is the % survival, ε is the error term. The four parameters in the model to estimate are: 1) the control-level effect (E); 2) the background-level effect (B); 3) the median effect concentration (GI50); and 4) the strength of the inhibition (m). The constraint of non-negative minimum background effect (B) is imposed so the model is biologically meaningful. Levenberg-Marquardt algorithm for nonlinear least squares was used to fit the model and estimate all four parameters for each cell line under each treatment. Estimated concentration at 50% cell survival, i.e., IC50, is estimated using the plugged-in parameters after model fitting. Note that when the control and background effects are 100% and 0%, respectively, the estimated GI50 and IC50 values would be identical. To compare the estimated IC50 values between the resistance and naïve paired of cell lines, after log transformation, a paired t-test was performed for each drug.

[3] = test system: vemurafenib sensitive and naïve cell lines; assay: Cell cycle analysis, propidium iodide flow cytometry; type: cell-based; conditions: 300 nM, 24 hours
Experimental: FIGS. 15A, 15B, 15C, 15D, 15E, 15F, and 15G show the HSP90 inhibitor XL888 blocks the growth and survival of melanoma cell lines with diverse mechanisms of vemurafenib resistance. FIGS. 15A and 15B are graphs showing growth (%) of matched pairs of vemurafenib naïve and resistant melanoma cell lines and melanoma cell lines with intrinsic resistance. In FIG. 15A, cells were treated with increasing concentrations of vemurafenib (1 nM-10 μM: 72 hrs) before being subject to the MTT assay. […] FIGS. 15C to 15E are bar graphs showing the cell cycle effects of XL888 (300 nM: 24 hours) upon vemurafenib sensitive and naïve cell lines. Cells were fixed, stained with propidium iodide and distributions analyzed by flow cytometry. FIG. 15F-G are bar graphs showing that XL888 induced apoptosis in every model of acquired vemurafenib resistance tested. Cells were treated for either 72 or 144 hours with XL888 (300 nM) followed by Annexin-V. Apoptosis was measured by flow cytometry.

[4] = test system: vemurafenib resistant melanoma cell lines; assay: Apoptosis, Annexin-V staining and flow cytometry; type: cell-based; conditions: 72 or 144 hours
Experimental: Flow cytometry. […] In some studies, RPMI7951 cells were treated with 300 nM XL888 in the presence or absence of 3 μM vemurafenib and harvested after 24, 48 and 72 hours.

Q: `CC[C@@H](C)Nc1cc(C(=O)N[C@@H]2C[C@H]3CC[C@@H](C2)N3c2ccc(C(=O)C3CC3)cn2)c(C)cc1C(N)=O` [XL888, 5-((R)-sec-butylamino)-N1-((1R,3s,5S)-8-(5-(cyclopropanecarbonyl)pyridin-2-yl)-8-azabicyclo[3.2.1]octan-3-yl)-2-methylterephthalamide] was tested. Which “inhibiting chymotrypsin like proteasome activity” value [1] did it give?
A: less effective than the MEK+PI3K inhibitor combination

Q: And the “increase in intratumoral HSP70 expression compared to controls” value (intratumoral HSP70)?
A: 8.6 fold

Q: And the “growth of the cell lines” value ([2]; 1 nM-10 μM, 72 hours, MTT)?
A: dose dependent decreases in the growth of all the cell lines

Q: And the “difference in growth inhibition / IC50 between naïve and resistant pairs of cell lines” value ([2]; M229/M229R, M249/M249R, WM164/WM164R, 1205Lu/1205LuR, paired t-test)?
A: no significant difference in IC50 values

Q: What about the cell cycle effect ([3]; WM164, M229, M229R, M249, M249R, 1205Lu, WM39) of the same molecule?
A: G1-phase cell cycle arrest

Q: And the cell cycle effect ([3]; WM164R, 1205LuR, RPMI 7951)?
A: G2/M phase cell cycle arrest

Q: What about the apoptosis ([4]; 300 nM, every cell line tested) of the same molecule?
A: > 66%

Q: And the “apoptosis versus MEK, PI3K and MEK+PI3K inhibitors” value ([4]; resistance through COT, PDGFRβ overexpression and two unknown mechanisms)?
A: significantly higher levels of apoptosis than each of the other drug combinations

Source: patent US20210100777A1, “HEAT SHOCK PROTEIN (HSP) INHIBITION AND MONITORING EFFECTIVENESS THEREOF” (H. LEE MOFFITT CANCER CENTER AND RESEARCH INSTITUTE, INC., priority 2013, published 2021)
